Reference: patent EP3502102A1, “STING INHIBITORS” (ECOLE POLYTECHNIQUE FEDERALE DE LAUSANNE (EPFL), priority 2017, dated 2019)

Experiments:
STING [1] = target: T1, STING (Mus musculus, UniProt Q3TBT3); experiment: Flag immunoprecipitation, recruitment of TBK1 to STING; assay type: cell-based; set-up: expressed in transfected cells; host or cells: HEK293T; conditions: HEK293T expressing Flag-STING; 1 µM; CMA 2 h
T1 sequence (Q3TBT3 1-378): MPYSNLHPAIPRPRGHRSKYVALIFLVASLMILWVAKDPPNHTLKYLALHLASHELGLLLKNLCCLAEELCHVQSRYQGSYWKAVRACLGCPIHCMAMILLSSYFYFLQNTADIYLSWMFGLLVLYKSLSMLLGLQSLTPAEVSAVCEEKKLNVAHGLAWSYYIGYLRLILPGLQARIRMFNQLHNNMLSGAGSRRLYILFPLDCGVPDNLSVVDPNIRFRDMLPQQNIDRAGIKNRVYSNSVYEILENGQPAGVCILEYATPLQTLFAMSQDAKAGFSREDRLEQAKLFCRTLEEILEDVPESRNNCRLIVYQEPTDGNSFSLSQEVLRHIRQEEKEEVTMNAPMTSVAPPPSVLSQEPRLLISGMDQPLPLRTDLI

STING [2] = target: T1, STING; experiment: Blue native gel assay of STING clusters; assay type: cell-based; set-up: expressed in transfected cells; host or cells: HEK293T; conditions: C-178, C-176 1 µM, 2-BP 50 µM; CMA 1.5 h
Method: Reporter activity was measured 16 h after compound treatment. A nonlinear regression analysis was performed. […] Circles indicate substitutes compared to C-176. d, e, Chemical compounds from (c) were tested at 0.5 µM for inhibitory activity in HEK293T cells transfected with STING (e) or RIG-I (f) in conjunction with IFN-• luciferase reporter, respectively. b, e, f, Values of inhibitor-treated cells were normalized to DMSO-treated cells. […] Cytokine levels were normalized to DMSO-treated control cells. A nonlinear regression analysis was performed for cGAMP stimulation. b, c, BMDMs were pre-treated with C-178 (0.25 µM) and stimulated with cGAMP, cyclic di-GMP, CMA, 90mer dsDNA or LPS for 3 h. The induction of Ifnb1 mRNA levels was assessed by RT-qPCR. d, Heatmaps of RNA sequencing analysis of BMDMs treated with DMSO or CMA and with or without addition of C-178. […] Reporter activity was measured 16 h after transfection and values were normalized to DMSO-treated control cells. c, BMDMs were treated with C-178 (0.25 µM) for 1 h, washed or left untreated and after an additional hour stimulated with cGAMP. […] Flag-STING was immunoprecipitated from whole cell lysate and analysed by autoradiography. In parallel, cell lysates were analysed by immunoblotting for p-TBK1 and STING. d, HEK293T cells expressing STING were treated as indicated (C-178 (1 µM)) and stimulated with CMA for 1.5 h. […]

## O=C(Nc1ccc(I)cc1)c1ccc([N+](=O)[O-])o1 [C-176, N-(4-iodophenyl)-5-nitro-2-furamide]
STING [1]
  recruitment of TBK1: block
STING [2]
  assembly of STING clusters: blocked
